Where “and” joins values, the source holds several entries; their conditions need not be identical. Identical values can stand only once. Counter-ions that a name gives are not always drawn. Like-named read-outs stand apart in the source and are kept apart here.
Tested on: 60 cancer cell lines (NCI 60 cancer cell line series)
Experiment: NCI-DTP in vitro cancer screen, sulforhodamine B (SRB) growth inhibition, 48 hour exposure
Type: cell-based, human
Procedure: Cancer Cell Line Preparation. Sixty cancer cell lines were obtained from the National Cancer Institute Developmental Therapeutics Program (NCI-DTP). Procedures for growing cells and testing compounds have been described previously (Scudiero et al., Cancer Res. 1988, 48:4827-4833; Stinson et al., Anticancer Res.; Myers et al., Electrophoresis 1997, 18:647-653). Cells are plated on day 0 at a density individualized for each cell line so that they will generally be sub-confluent at the end of the assay period. On day 1, a compound is added in the format for a duplicate-well, 5-dose, ten-fold interval dose response study.
No-drug, no-cell and no-growth controls are included. On day 3 the cells are processed for staining with sulforhodamine B (SRB), which reflects the amount of cell mass present at the end of a 48 hour exposure to the test agent. From dose response curves based on the SRB data, various parameters can be determined. […] More precisely, the quantity used in the calculation to be described is the potency measure −log{GI50}.
Activity database (A). […] This subset of compounds was selected from the larger 23,000 compound database available from the DTP. The compounds were selected on the basis of their known mechanism of action and chemical structure. The average potency −log{GI50} was extracted from the comma-delimited text files available through the Web at http://www.nci.nih.gov/intra/lmp/jnwbio.html. Subsequently, these −log{GI50} values were inspected manually and classified as indicating either Low, Medium or High sensitivity to each compound.

CC[C@]1(O)C[C@@H]2CN(CCc3c([nH]c4ccccc34)[C@@](C(=O)OC)(c3cc4c(cc3OC)N(C)[C@H]3[C@@](O)(C(=O)OC)[C@H](OC(C)=O)[C@]5(CC)C=CCN6CC[C@]43[C@@H]65)C2)C1 [Vinblastine sulfate]
1: classification of cell line as Low(1), Medium(2), High(3) sensitivity to compound (Breast MCF7/ADRr CL5002) | classification of cell line as Low(1), Medium(2), High(3) sensitivity to compound (Colon HCT-15 CL4015) | classification of cell line as Low(1), Medium(2), High(3) sensitivity to compound (NSCLC EKVX CL1008) | sensitivity classification Low(1)/Medium(2)/High(3) (Renal TK10 CL9024) | sensitivity classification Low(1)/Medium(2)/High(3) (Renal UO-31 CL9004)
3: classification of cell line as Low(1), Medium(2), High(3) sensitivity to compound (Breast HS-578T CL5006) | classification of cell line as Low(1), Medium(2), High(3) sensitivity to compound (Breast MDA-MB-435 CL5011) | classification of cell line as Low(1), Medium(2), High(3) sensitivity to compound (Breast MDA-N CL5012) | classification of cell line as Low(1), Medium(2), High(3) sensitivity to compound (Leukemia HL-60(I) CL7008) | classification of cell line as Low(1), Medium(2), High(3) sensitivity to compound (Melanoma SK-MEL-5 CL10007) | classification of cell line as Low(1), Medium(2), High(3) sensitivity to compound (Melanoma UACC-62 CL10020) | sensitivity classification Low(1)/Medium(2)/High(3) (NSCLC NCI-H522 CL1003) | sensitivity classification Low(1)/Medium(2)/High(3) (Ovarian OVCAR-3 CL6001)
2: classification of cell line as Low(1), Medium(2), High(3) sensitivity to compound (Breast MDA-MB-231 CL5005) | classification of cell line as Low(1), Medium(2), High(3) sensitivity to compound (CNS SF-268 CL12014) | classification of cell line as Low(1), Medium(2), High(3) sensitivity to compound (CNS SF-295 CL12015) | classification of cell line as Low(1), Medium(2), High(3) sensitivity to compound (CNS SF-539 CL12016) | classification of cell line as Low(1), Medium(2), High(3) sensitivity to compound (CNS SNB-19 CL12002) | classification of cell line as Low(1), Medium(2), High(3) sensitivity to compound (CNS U251(I) CL12009) | classification of cell line as Low(1), Medium(2), High(3) sensitivity to compound (Colon HCC-2998 CL4002) | classification of cell line as Low(1), Medium(2), High(3) sensitivity to compound (Colon KM12 CL4017) | classification of cell line as Low(1), Medium(2), High(3) sensitivity to compound (Colon SW-620 CL4009) | classification of cell line as Low(1), Medium(2), High(3) sensitivity to compound (Leukemia CCRF-CEM(I) CL7003) | classification of cell line as Low(1), Medium(2), High(3) sensitivity to compound (Leukemia MOLT-4 CL7006) | classification of cell line as Low(1), Medium(2), High(3) sensitivity to compound (Melanoma M14 CL10014) | classification of cell line as Low(1), Medium(2), High(3) sensitivity to compound (Melanoma MALME-3M CL10002) | classification of cell line as Low(1), Medium(2), High(3) sensitivity to compound (Melanoma SK-MEL-2 CL10005) | classification of cell line as Low(1), Medium(2), High(3) sensitivity to compound (Melanoma SK-MEL-28 CL10008) | classification of cell line as Low(1), Medium(2), High(3) sensitivity to compound (NSCLC A549/ATCC CL1004) | classification of cell line as Low(1), Medium(2), High(3) sensitivity to compound (NSCLC HOP-62 CL1026) | classification of cell line as Low(1), Medium(2), High(3) sensitivity to compound (NSCLC HOP-92 CL1029) | sensitivity classification Low(1)/Medium(2)/High(3) (NSCLC NCI-H23(I) CL1001) | classification of cell line as Low(1), Medium(2), High(3) sensitivity to compound (NSCLC NCI-H226 CL1013) | sensitivity classification Low(1)/Medium(2)/High(3) (NSCLC NCI-H332M CL1017) | sensitivity classification Low(1)/Medium(2)/High(3) (NSCLC NCI-H460 CL1021) | sensitivity classification Low(1)/Medium(2)/High(3) (Ovarian IGROV1 CL6010) | sensitivity classification Low(1)/Medium(2)/High(3) (Ovarian OVCAR-8 CL6005) | sensitivity classification Low(1)/Medium(2)/High(3) (Ovarian SK-OV-3 CL6011) | sensitivity classification Low(1)/Medium(2)/High(3) (Renal 786-0 CL9018) | sensitivity classification Low(1)/Medium(2)/High(3) (Renal CAKI-1 CL9015) | sensitivity classification Low(1)/Medium(2)/High(3) (Renal RXF-393 CL9016) | sensitivity classification Low(1)/Medium(2)/High(3) (Renal SN12C CL9008)

O=NN(CCCl)C(=O)NCCCl [BCNU]
2 and 1 and 3: sensitivity classification Low(1)/Medium(2)/High(3)

N[C@@H](Cc1ccc(N(CCCl)CCCl)cc1)C(=O)O [Melphalan]
2: classification of cell line as Low(1), Medium(2), High(3) sensitivity to compound | classification of cell line as Low(1), Medium(2), High(3) sensitivity to compound (Breast BT-549 CL5013) | classification of cell line as Low(1), Medium(2), High(3) sensitivity to compound (Breast HS-578T CL5006) | classification of cell line as Low(1), Medium(2), High(3) sensitivity to compound (Breast MCF7/ADRr CL5002) | classification of cell line as Low(1), Medium(2), High(3) sensitivity to compound (Breast MDA-MB-231 CL5005) | classification of cell line as Low(1), Medium(2), High(3) sensitivity to compound (Breast MDA-MB-435 CL5011) | classification of cell line as Low(1), Medium(2), High(3) sensitivity to compound (Breast MDA-N CL5012) | classification of cell line as Low(1), Medium(2), High(3) sensitivity to compound (Breast T-47D CL5014) | classification of cell line as Low(1), Medium(2), High(3) sensitivity to compound (Colon COLO-250 CL4010) | classification of cell line as Low(1), Medium(2), High(3) sensitivity to compound (Colon HCC-2998 CL4002) | classification of cell line as Low(1), Medium(2), High(3) sensitivity to compound (Colon HCT-15 CL4015) | classification of cell line as Low(1), Medium(2), High(3) sensitivity to compound (Colon HCT-116 CL4003) | classification of cell line as Low(1), Medium(2), High(3) sensitivity to compound (Colon SW-620 CL4009) | classification of cell line as Low(1), Medium(2), High(3) sensitivity to compound (Leukemia K562(I) CL7005) | classification of cell line as Low(1), Medium(2), High(3) sensitivity to compound (Leukemia RPMI-8226(I) CL7010) | classification of cell line as Low(1), Medium(2), High(3) sensitivity to compound (Melanoma LOX IMVI CL10001) | classification of cell line as Low(1), Medium(2), High(3) sensitivity to compound (Melanoma M14 CL10014) | classification of cell line as Low(1), Medium(2), High(3) sensitivity to compound (Melanoma MALME-3M CL10002) | classification of cell line as Low(1), Medium(2), High(3) sensitivity to compound (Melanoma SK-MEL-2 CL10005) | classification of cell line as Low(1), Medium(2), High(3) sensitivity to compound (Melanoma SK-MEL-5 CL10007) | classification of cell line as Low(1), Medium(2), High(3) sensitivity to compound (Melanoma SK-MEL-28 CL10008) | classification of cell line as Low(1), Medium(2), High(3) sensitivity to compound (Melanoma UACC-257 CL10021) | classification of cell line as Low(1), Medium(2), High(3) sensitivity to compound (NSCLC A549/ATCC CL1004) | classification of cell line as Low(1), Medium(2), High(3) sensitivity to compound (NSCLC EKVX CL1008) | classification of cell line as Low(1), Medium(2), High(3) sensitivity to compound (NSCLC HOP-62 CL1026) | classification of cell line as Low(1), Medium(2), High(3) sensitivity to compound (NSCLC HOP-92 CL1029) | sensitivity classification Low(1)/Medium(2)/High(3) (NSCLC NCI-H23(I) CL1001) | classification of cell line as Low(1), Medium(2), High(3) sensitivity to compound (NSCLC NCI-H226 CL1013) | sensitivity classification Low(1)/Medium(2)/High(3) (NSCLC NCI-H522 CL1003) | sensitivity classification Low(1)/Medium(2)/High(3) (Ovarian IGROV1 CL6010) | sensitivity classification Low(1)/Medium(2)/High(3) (Ovarian OVCAR-3 CL6001) | sensitivity classification Low(1)/Medium(2)/High(3) (Ovarian OVCAR-4 CL6002) | sensitivity classification Low(1)/Medium(2)/High(3) (Ovarian OVCAR-5 CL6003) | sensitivity classification Low(1)/Medium(2)/High(3) (Ovarian OVCAR-8 CL6005) | sensitivity classification Low(1)/Medium(2)/High(3) (Ovarian SK-OV-3 CL6011) | sensitivity classification Low(1)/Medium(2)/High(3) (Prostate DU-145 CL11003) | sensitivity classification Low(1)/Medium(2)/High(3) (Prostate PC-3(I) CL11001) | sensitivity classification Low(1)/Medium(2)/High(3) (Renal 786-0 CL9018) | sensitivity classification Low(1)/Medium(2)/High(3) (Renal RXF-393 CL9016) | sensitivity classification Low(1)/Medium(2)/High(3) (Renal SN12C CL9008) | sensitivity classification Low(1)/Medium(2)/High(3) (Renal UO-31 CL9004)
3: classification of cell line as Low(1), Medium(2), High(3) sensitivity to compound (Breast MCF7(I) CL5001) | classification of cell line as Low(1), Medium(2), High(3) sensitivity to compound (Leukemia CCRF-CEM(I) CL7003) | classification of cell line as Low(1), Medium(2), High(3) sensitivity to compound (Leukemia HL-60(I) CL7008) | classification of cell line as Low(1), Medium(2), High(3) sensitivity to compound (Leukemia MOLT-4 CL7006) | classification of cell line as Low(1), Medium(2), High(3) sensitivity to compound (Leukemia SR CL7019) | classification of cell line as Low(1), Medium(2), High(3) sensitivity to compound (Melanoma UACC-62 CL10020) | sensitivity classification Low(1)/Medium(2)/High(3) (NSCLC NCI-H460 CL1021) | sensitivity classification Low(1)/Medium(2)/High(3) (Renal ACHN CL9023) | sensitivity classification Low(1)/Medium(2)/High(3) (Renal CAKI-1 CL9015)
1: classification of cell line as Low(1), Medium(2), High(3) sensitivity to compound (Colon HT29(I) CL4001) | classification of cell line as Low(1), Medium(2), High(3) sensitivity to compound (Colon KM12 CL4017) | sensitivity classification Low(1)/Medium(2)/High(3) (NSCLC NCI-H332M CL1017) | sensitivity classification Low(1)/Medium(2)/High(3) (Renal A498 CL9013) | sensitivity classification Low(1)/Medium(2)/High(3) (Renal TK10 CL9024)

Nc1ccn([C@@H]2O[C@H](CO)[C@@H](O)[C@@H]2O)c(=O)n1 [AraC]
3 and 2 and 1: classification of cell line as Low(1), Medium(2), High(3) sensitivity to compound | sensitivity classification Low(1)/Medium(2)/High(3)
